This is an account of results in PubChem BioAssay AID248 (DTP/NCI, 2004).

In the assay the test system is L1210 leukemia ip in BDF1 mice, survival T/C. As to the kind of experiment: NCI In Vivo Anticancer Drug Screen. Data for tumor model L1210 Leukemia (intraperitoneal) in B6D2F1 (BDF1) mice. To be noted: endpoint: mean survival time, higher = longer survival. Put shortly: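 Each compound was tested against a transplantable tumor grown in mice. The endpoint was survival, with treated animals benchmarked against vehicle controls as a simple ratio.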

Setting [1] is: dose: 50.0 mg/kg/injection, schedule: Q04DX003 (ip), vehicle: saline.
The mark [2] stands for this setting: dose: 100.0 mg/kg/injection, schedule: Q04DX003 (ip), vehicle: saline.
The mark [3] stands for this setting: dose: 100.0 mg/kg/injection, schedule: Q01DX001 (ip), vehicle: saline.
The mark [4] stands for this setting: dose: 200.0 mg/kg/injection, schedule: Q01DX001 (ip), vehicle: saline.
The mark [5] stands for this setting: dose: 400.0 mg/kg/injection, schedule: Q01DX001 (ip), vehicle: saline.
Where [6] appears, read: dose: 100.0 mg/kg/injection, schedule: Q04DX003 (ip), vehicle: Klucel (hydroxypropylcellulose) (HPC).
The mark [7] stands for this setting: dose: 200.0 mg/kg/injection, schedule: Q04DX003 (ip), vehicle: Klucel (hydroxypropylcellulose) (HPC).
[8] abbreviates: dose: 400.0 mg/kg/injection, schedule: Q04DX003 (ip), vehicle: Klucel (hydroxypropylcellulose) (HPC).
Setting [9] is: dose: 50.0 mg/kg/injection, schedule: Q04DX003 (ip), vehicle: Klucel (hydroxypropylcellulose) (HPC).
[10] abbreviates: dose: 100.0 mg/kg/injection, schedule: Q01DX001 (ip), vehicle: carboxymethylcellulose (CMC).
Setting [11] is: dose: 100.0 mg/kg/injection, schedule: Q04DX002 (ip), vehicle: Klucel (hydroxypropylcellulose) (HPC).
Where [12] appears, read: dose: 200.0 mg/kg/injection, schedule: Q04DX002 (ip), vehicle: Klucel (hydroxypropylcellulose) (HPC).
The mark [13] stands for this setting: dose: 200.0 mg/kg/injection, schedule: Q04DX003 (ip), vehicle: saline.
The mark [14] stands for this setting: dose: 400.0 mg/kg/injection, schedule: Q04DX003 (ip), vehicle: saline.

“And” between values parts separate entries of the source, which are not always exact repeats. Equal values may be shown once. Toxic doses and inconclusive results are not listed.

With `CCN(CC)Cc1ccccn1`, the T/C (dose: 25.0 mg/kg/injection, schedule: Q04DX003 (ip), vehicle: saline) was 102 % of control; the T/C under setting [1] was 107 % of control; the T/C under setting [2] was 96 % of control.
In the case of `O=c1cc(-c2ccccc2Br)[nH]c2ccccc12`, the T/C is, setting by setting: under setting [3], 96 % of control; under setting [4], 100 % of control; under setting [5], 96 % of control.
With `O=P(c1ccccc1)(c1ccccc1)N1CCCCC1`, the T/C was 101 % of control under setting [6], 96 % of control under setting [7] and 93 % of control under setting [8].
With `CCc1ccc(NC(=O)N(CCCl)N=O)cc1`, the T/C reads like this: (dose: 10.0 mg/kg/injection, schedule: Q01DX009 (ip), vehicle: Klucel (hydroxypropylcellulose) (HPC)) 168 % of control and 175 % of control; (dose: 20.0 mg/kg/injection, schedule: Q01DX009 (ip), vehicle: Klucel (hydroxypropylcellulose) (HPC)) 157 % of control and 172 % of control; (dose: 25.0 mg/kg/injection, schedule: Q04DX003 (ip), vehicle: Klucel (hydroxypropylcellulose) (HPC)) 124 % of control; (dose: 40.0 mg/kg/injection, schedule: Q01DX009 (ip), vehicle: Klucel (hydroxypropylcellulose) (HPC)) 88 % of control; under setting [9], 150 % of control and 159 % of control; under setting [10], 101 % of control. Also, the T/C under setting [7] is 105 % of control.
On to `NC(=O)c1c(F)c(F)c(N)c(F)c1F`, for which the T/C reads like this: under setting [11], 96 % of control; under setting [12], 93 % of control; (dose: 400.0 mg/kg/injection, schedule: Q04DX002 (ip), vehicle: Klucel (hydroxypropylcellulose) (HPC)) 118 % of control.
Regarding `COC(=O)C(C)NC(=O)CNC(=O)CNC(=O)OCc1ccccc1` (stereo not given), the T/C under setting [6] is 97 % of control, the T/C under setting [7] was 100 % of control and the T/C under setting [8] was 95 % of control.
For the compound `COc1ccc(/C=C(/C)C(=O)c2ccccc2)cc1`, the T/C by setting is: under setting [6], 98 % of control; under setting [7], 88 % of control; under setting [8], 103 % of control.
`C[n+]1ccn2ccccc21`: the T/C (dose: 50.0 mg/kg/injection, schedule: Q01DX001 (ip), vehicle: saline with Tween-80) is 104 % of control and the T/C (dose: 100.0 mg/kg/injection, schedule: Q01DX001 (ip), vehicle: saline with Tween-80) was 109 % of control.
Regarding `COc1ccc(CC/C(=N/O)c2ccccc2)cc1`, the T/C (dose: 50.0 mg/kg/injection, schedule: Q01DX001 (ip), vehicle: other) was 94 % of control; the T/C (dose: 100.0 mg/kg/injection, schedule: Q01DX001 (ip), vehicle: other) was 100 % of control; the T/C (dose: 200.0 mg/kg/injection, schedule: Q01DX001 (ip), vehicle: other) was 90 % of control; the T/C (dose: 400.0 mg/kg/injection, schedule: Q01DX001 (ip), vehicle: other) is 102 % of control.
As to `CC1(C)OC(=O)C(C(N)=O)C1c1ccc(Cl)cc1` (stereo not given), the T/C by setting is: under setting [3], 103 % of control; under setting [4], 104 % of control; under setting [5], 103 % of control.
Take `Cc1cccc(N=Nc2c(C)nc(N)nc2C)c1C`: the T/C runs as follows: (dose: 100.0 mg/kg/injection, schedule: Q04DX003 (ip), vehicle: other) 94 % of control; (dose: 200.0 mg/kg/injection, schedule: Q04DX003 (ip), vehicle: other) 96 % of control; (dose: 400.0 mg/kg/injection, schedule: Q04DX003 (ip), vehicle: other) 93 % of control.
As for `O=C(c1ccc(Br)cc1)C1C(c2ccccc2)N1C1CCCCC1` (stereo not given), the T/C was 98 % of control under setting [6], 96 % of control under setting [7] and 93 % of control under setting [8].
Regarding `CN(C)/N=C\c1ccc(C(=O)O)cc1`, the T/C under setting [9] is 92 % of control; the T/C under setting [1] is 114 % of control; the T/C under setting [6] was 88 % of control; the T/C under setting [2] was 109 % of control; the T/C under setting [7] was 95 % of control; the T/C under setting [13] is 114 % of control. Moreover, the T/C reads like this: under setting [8], 93 % of control; under setting [14], 100 % of control.
With `CCOC(=O)Nc1ccccc1-c1ccccc1`, the T/C was 94 % of control (dose: 100.0 mg/kg/injection, schedule: Q04DX002 (sc), vehicle: olive oil, sesame oil, peanut oil); 105 % of control (dose: 200.0 mg/kg/injection, schedule: Q04DX002 (sc), vehicle: olive oil, sesame oil, peanut oil); 97 % of control (dose: 400.0 mg/kg/injection, schedule: Q04DX002 (sc), vehicle: olive oil, sesame oil, peanut oil).
As for `O=C(NO)c1cc(=O)[nH]o1`, the T/C (dose: 100.0 mg/kg/injection, schedule: Q04DX003 (ip), vehicle: saline with Tween-80) is 95 % of control; the T/C (dose: 200.0 mg/kg/injection, schedule: Q04DX003 (ip), vehicle: saline with Tween-80) is 95 % of control; the T/C (dose: 400.0 mg/kg/injection, schedule: Q04DX003 (ip), vehicle: saline with Tween-80) is 95 % of control.
As for `O=C1C(Cl)=C(Nc2ccccc2)C(=O)c2ccccc21`, the T/C was 101 % of control under setting [6], 101 % of control under setting [7] and 102 % of control under setting [8].
Take `COC(=O)C1C2c3ccccc3C(C1C(=O)OC)[n+]1ccccc12` (stereo not given): the T/C is, setting by setting: under setting [6], 95 % of control; under setting [7], 98 % of control.
Take `CC(C)(CCl)c1ccc(C(C)(C)CCl)cc1`: the T/C runs as follows: (dose: 50.0 mg/kg/injection, schedule: Q04DX002 (ip), vehicle: Klucel (hydroxypropylcellulose) (HPC)) 104 % of control; under setting [11], 93 % of control; under setting [12], 93 % of control.
For the compound `O=C(NCCCCCCNC(=O)NCc1ccc(Cl)c(Cl)c1)NCc1ccc(Cl)c(Cl)c1`, the T/C was 97 % of control (dose: 100.0 mg/kg/injection, schedule: Q01DX009 (ip), vehicle: other); 86 % of control (dose: 200.0 mg/kg/injection, schedule: Q01DX009 (ip), vehicle: other); 95 % of control (dose: 400.0 mg/kg/injection, schedule: Q01DX009 (ip), vehicle: other).
`Nc1c(Oc2cccc(C[N+]3(CCOS(=O)(=O)O)CC3)c2)cc(O)c2c1C(=O)c1ccccc1C2=O`: the T/C by setting is: under setting [10], 96 % of control; (dose: 200.0 mg/kg/injection, schedule: Q01DX001 (ip), vehicle: carboxymethylcellulose (CMC)) 93 % of control.
Turning to `O=C(NNCCO)C(O)C(O)C(O)C(O)CO` (stereo not given), the T/C runs as follows: under setting [2], 97 % of control; under setting [13], 97 % of control; under setting [14], 97 % of control.
